Test results as given in PMC10584170, “Machine learning-based phenotypic imaging to characterise the targetable biology of Plasmodium falciparum male gametocytes for the development of transmission-blocking antimalarials” (PLOS Pathogens, 2023).
Like-named read-outs stand apart in the source and are kept apart here.

Tests used:
[1] = system: P. falciparum female gametocytes; assay: P. falciparum Dual Gamete Formation Assay (PfDGFA), female readout (Pfs25-positive female gametes); assay type: cell-based, Plasmodium falciparum NF54; conditions: for Selectivity ratio F: HepG2 Tox50 versus female IC50; for Average inhibition female (%) / % inhibition female (individual replicates) R1 / % inhibition female (individual replicates) R3 / % inhibition female (individual replicates) R4: 24h preincubation with gametocytes; for Average inhibition female (%): average of replicates; for % inhibition female (individual replicates) R1: replicate R1; for % inhibition female (individual replicates) R3: replicate R3; for % inhibition female (individual replicates) R4: replicate R4; for IC50: read-out: Female IC50; for HitlevelF: number of replicates with >50% inhibition in the female readout
How it was run: (§1)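 First, day-14 P. falciparum NF54 gametocytes receive compound for 24 h at 37°C in 1% O2/3% CO2. Next, ookinete medium with Cy3 anti-Pfs25 triggers gametogenesis at 28°C and male exflagellation is imaged. Finally, after 24 h in the dark, Cy3-labelled females are imaged.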

[2] = system: P. falciparum male gametocytes; assay: P. falciparum Dual Gamete Formation Assay (PfDGFA), male readout (exflagellation); assay type: cell-based, Plasmodium falciparum NF54; conditions: for Selectivity Ratio M: HepG2 Tox50 versus male IC50; for Average inhibition male (%) / % inhibition male (individual replicates) R1 / % inhibition male (individual replicates) R3 / % inhibition male (individual replicates) R4: 24h preincubation with gametocytes; for Average inhibition male (%): average of replicates; for % inhibition male (individual replicates) R1: replicate R1; for % inhibition male (individual replicates) R3: replicate R3; for % inhibition male (individual replicates) R4: replicate R4; for IC50: read-out: Male IC50; for HitlevelM: number of replicates with >50% inhibition in the male readout
How it was run: as §1

[3] = system: HepG2 cells; assay: HepG2 cytotoxicity counter-screen; conditions: cytotoxic activity against HepG2 cells
[4] = PfDGFA, 24 h incubation with gametocytes before induction, female gamete readout
[5] = PfDGFA, 24 h incubation with gametocytes before induction, exflagellation readout

Compound	Selectivity ratio F [1]	Average inhibition female (%) ([1]; PfDGFA at 2µM)	% inhibition female (individual replicates) R1 ([1]; PfDGFA at 2µM) [%]	% inhibition female (individual replicates) R3 ([1]; PfDGFA at 2µM) [%]	% inhibition female (individual replicates) R4 ([1]; PfDGFA at 2µM) [%]	IC50 [1, 4] [nM]	HitlevelF ([1]; 2µM)	Selectivity Ratio M [2]	Average inhibition male (%) ([2]; PfDGFA at 2µM)	% inhibition male (individual replicates) R1 ([2]; PfDGFA at 2µM) [%]	% inhibition male (individual replicates) R3 ([2]; PfDGFA at 2µM) [%]	% inhibition male (individual replicates) R4 ([2]; PfDGFA at 2µM) [%]	IC50 [2, 5] [nM]	HitlevelM ([2]; 2µM)	Tox50 [3] [µM]	Average inhibition female (%) ([1]; 2µM)	% inhibition female (individual replicates) R1 ([1]; 2µM) [%]	% inhibition female (individual replicates) R3 ([1]; 2µM) [%]	% inhibition female (individual replicates) R4 ([1]; 2µM) [%]	Average inhibition male (%) ([2]; 2µM)	also measured
CCN(CC)CCOc1ccc(C(O)(C#CC(O)(c2ccc(C)cc2)c2ccc(OCCN(CC)CC)cc2)c2ccc(C)cc2)cc1 (centres unmarked) [TCMDC-137198]	0.55	31.2	31.1	8.3	48.8	4730	0	2.02	80.0	79.9	84.8	81.8	1300	4	2.63	–	–	–	–	–	–
CCN(CC)CCOc1ccc(C(O)(C#CC(O)(c2ccc(Br)cc2)c2ccc(OCCN(CC)CC)cc2)c2ccc(Br)cc2)cc1 (centres unmarked) [TCMDC-137199]	1.56	19.7	20.5	18.5	25.4	1270	0	3.23	78.4	76.2	84.3	81.8	610	4	1.99	–	–	–	–	–	–
CCN(CC)CCOc1ccc(C(O)(C#CC(O)(c2ccc(OCCN(CC)CC)cc2)c2ccc([N+](=O)[O-])cc2)c2ccc([N+](=O)[O-])cc2)cc1 (centres unmarked) [TCMDC-137201]	1.17	55.9	46.7	67.0	64.5	2990	2	2.26	85.9	82.3	94.6	93.0	1540	4	3.49	–	–	–	–	–	–
CCCCOc1ccc(CNCCCCCCNCc2ccc(OCCCC)c3ccccc23)c2ccccc12.CS(=O)(=O)O [TCMDC-137281]	2.64	94.7	94.0	97.9	90.5	550	4	2.64	88.9	95.9	90.2	93.5	550	4	1.45	–	–	–	–	–	–
CS(=O)(=O)O.FC(F)(F)COc1ccc(CCNCCCCNCCc2ccc(OCC(F)(F)F)c3ccccc23)c2ccccc12 [TCMDC-137282]	1.73	–	–	–	–	1380	–	4.68	–	–	–	–	510	–	2.39	56.0	58.1	59.1	54.8	98.5	% inhibition male (individual replicates) R1 ([2]; 2µM): 98.3%; % inhibition male (individual replicates) R4 ([2]; 2µM): 97.4%
COc1ccc2c(CNCCCCCCNCc3c(OC)ccc4cc(OC)ccc34)c(OC)ccc2c1.CS(=O)(=O)O [TCMDC-137300]	0.75	–	–	–	–	4850	–	2.01	–	–	–	–	1810	–	3.63	77.0	80.6	93.8	84.0	90.0	% inhibition male (individual replicates) R1 ([2]; 2µM): 98.2%; % inhibition male (individual replicates) R3 ([2]; 2µM): 95.7%; % inhibition male (individual replicates) R4 ([2]; 2µM): 96.8%
CS(=O)(=O)O.FC(F)(F)COc1ccc2ccccc2c1CCNCCCCNCCc1c(OCC(F)(F)F)ccc2ccccc12 [TCMDC-137317]	0.26	40.6	30.1	13.1	36.4	3050	1	0.53	88.2	92.7	68.3	96.2	1520	4	0.8	–	–	–	–	–	–
C=CCOc1ccc2ccccc2c1CNCCCCCCNCc1c(OCC=C)ccc2ccccc12.CS(=O)(=O)O [TCMDC-137340]	1.38	45.4	35.2	31.1	51.0	2790	2	1.99	87.7	90.7	68.3	95.6	1930	4	3.85	–	–	–	–	–	–
Cl.N=C(NCCCCC1CCCCC1)c1cccc(C(=N)NCCCCC2CCCCC2)n1 [TCMDC-137452]	1.43	–	–	–	–	1860	–	2.02	–	–	–	–	1320	–	2.66	47.7	57.8	31.9	45.9	99.3	% inhibition male (individual replicates) R1 ([2]; 2µM): 93.4%; % inhibition male (individual replicates) R4 ([2]; 2µM): 104.5%
COc1cc(CNCCCCCCNCc2cc(OC)c3ccccc3c2OC)c(OC)c2ccccc12.CS(=O)(=O)O [TCMDC-137502]	1.24	71.8	79.7	78.6	84.0	3030	3	3.09	85.1	95.4	87.5	90.2	1210	4	3.76	–	–	–	–	–	–
Clc1ccc(/N=C(/NCCCCCCCN/C(=N\c2ccc(Cl)cc2)Nc2ccc(Cl)cc2)Nc2ccc(Cl)cc2)cc1 [TCMDC-137529]	1.6	–	–	–	–	1440	–	2.06	–	–	–	–	1120	–	2.3	51.0	61.8	39.3	54.5	95.0	% inhibition male (individual replicates) R1 ([2]; 2µM): 95.9%; % inhibition male (individual replicates) R4 ([2]; 2µM): 94.9%
CCCCCCC(N)c1ccc(OCCCOc2ccc(C(N)CCCCCC)cc2)cc1.Cl (centres unmarked) [TCMDC-137621]	2.08	–	–	–	–	1710	–	3.34	–	–	–	–	1070	–	3.56	47.1	37.5	53.9	41.4	94.3	% inhibition male (individual replicates) R1 ([2]; 2µM): 98.4%; % inhibition male (individual replicates) R3 ([2]; 2µM): 82.0%; % inhibition male (individual replicates) R4 ([2]; 2µM): 99.6%
CC(CO)(CO)NCc1cc2c3ccccc3c(CNC(C)(CO)CO)cc2c2ccccc12.CS(=O)(=O)O [TCMDC-137752]	2.72	–	–	–	–	–	–	14.99	–	–	–	–	–	–	13.04	–	–	–	–	–	IC50 ([1]; Plasmodium falciparum, 24 h): 4790 nM; inhibition at 2 µM ([1]; Plasmodium falciparum, read-out: % inhibition female (individual replicates) R1): 37.9%; inhibition at 2 µM ([1]; Plasmodium falciparum, read-out: % inhibition female (individual replicates) R2): 48.4%; inhibition at 2 µM ([1]; Plasmodium falciparum, read-out: % inhibition female (individual replicates) R3): 18.2%; inhibition at 2 µM ([1]; Plasmodium falciparum, read-out: % inhibition female (individual replicates) R4): 48.2%; inhibition at 2 µM ([1]; Plasmodium falciparum, read-out: Average inhibition female (%)): 38.2%; IC50 ([2]; Plasmodium falciparum, 24 h): 870 nM; inhibition at 2 µM ([2]; Plasmodium falciparum, read-out: % inhibition male (individual replicates) R1): 93.1%; inhibition at 2 µM ([2]; Plasmodium falciparum, read-out: % inhibition male (individual replicates) R2): 93.5%; inhibition at 2 µM ([2]; Plasmodium falciparum, read-out: % inhibition male (individual replicates) R3): 85.5%; inhibition at 2 µM ([2]; Plasmodium falciparum, read-out: % inhibition male (individual replicates) R4): 90.9%; inhibition at 2 µM ([2]; Plasmodium falciparum, read-out: Average inhibition male (%)): 90.8%
